According to a melting point compilation (Tetko et al.; mined from patent text by program, amines drawn as free bases though some values may be those of a salt):

Row | melting point | SMILES
1 | 136 to 137 °C | CN(C)Cc1cc(-c2ccccc2)c(O)c(-c2ccccc2)c1
2 | 321 to 323 °C | CN(C)c1ccc2c(c1)C(=O)CC(c1ccc(O)cc1)=N2
3 | 167 to 168 °C | Cc1ccc(N(c2ccccc2)c2ccc(-c3ccc(-c4ccc(N(c5ccccc5)c5ccc(C)cc5)cc4)cc3)cc2)cc1
4 | 44 to 54 °C | CN1CCN(C2=Nc3ccccc3Sc3ccccc32)C[C@@H]1CCc1ccccc1
5 | 194 to 196 °C | CCc1nnc2ccc(-c3ccc(C(F)(F)F)cc3)nn12
6 | 94 to 96 °C | O=c1n(CCCN2CCN(c3ccccc3)CC2)nc2n1-c1ccccc1OC2
7 | 57.5 to 61.5 °C | C=C(C)C(=O)OCCNC(=O)Oc1cccc(OC(=O)c2ccccc2)c1
8 | 101 to 102 °C | Cc1ccc(OCCCCCOc2ccc3ccc(=O)oc3c2)cn1
9 | 188 to 189 °C | Clc1ccc2c(c1)[nH]c1cc(Cl)ccc12
10 | 98 to 100 °C | CCOC(=O)Cn1ncc(-c2ccccn2)c1-c1ccccc1
11 | 218 to 219 °C | OC1CSC(Oc2cncc(-c3ccc(C(F)(F)F)cc3)c2)C(O)C1O (stereo not drawn)
12 | 238 to 241 °C | CCOc1ccc2c(c1O)CCN(C(C)=O)[C@@H]2c1cc(Cl)cc(Cl)c1
13 | 102 to 104 °C | CN(C(=O)c1ccccn1)c1cc(F)cc(F)c1
14 | 97 to 98 °C | CN(C)CCN1Cc2cccc3cccc(c23)S1(=O)=O
15 | 190 to 192 °C | O=C1CC2CS(=O)c3ccccc3C2=NN1c1ccc(Cl)cc1 (stereo not drawn)
16 | 60 °C | O=Cc1nn(-c2ccccc2)c2c1CCCC2
17 | 146 to 150 °C | Cc1ccc(Cn2nc(CCCc3ccc(OC(C)(C)C(=O)O)cc3)[nH]c2=O)cc1C
18 | 162 °C | CCCc1c(OCCCOc2ccccc2)ccc2c1OC(CCC(=O)O)(CCC(=O)O)CC2=O
19 | 147 to 149 °C | Fc1ccc(CSc2nc3cnccc3[nH]2)cc1F
20 | 162 °C | O=C(Nc1ccc(OCc2ccccc2)cc1)C1CC1
21 | 123 to 127 °C | FC(F)(F)c1ccc(-c2nc(-c3ccccn3)cs2)cc1
22 | 187 °C | CC(=NNC(=O)c1ccccc1C)c1ccncc1
23 | 240 to 242 °C | O=C(Nc1ccccn1)C1=C(O)c2sc3ccccc3c2S(=O)(=O)N1
24 | 181 to 185 °C | O=C(O)C(O)C(O)C(=O)NCc1ccc2c(c1)-c1n[nH]c(=O)c3cccc(c13)O2 (stereo not drawn)
25 | 219 to 220 °C | O=c1c2cc(F)c(N3CCCC3)nc2n(Cc2ccccc2)c(=O)n1O
26 | 110 to 111 °C | CS(=O)(=O)c1ccc(-c2cc(C(F)F)nn2-c2cccc(C(F)(F)F)c2)cc1F
27 | 237 to 239 °C | CC(C)c1ccc(-c2ncc(-c3cccc(C(=O)O)c3)s2)cc1
28 | 154 °C | CC(C)CCC(=O)OC1c2ccccc2C(=O)N1c1ccc2ccc(F)nc2n1 (stereo not drawn)
29 | 168 to 170 °C | CCNC(=S)NS(=O)(=O)c1cc(CCNC(=O)c2cc(Cl)ccc2OC)ccc1-c1ccccc1
30 | 115 to 117 °C | Clc1ccc(-c2cc(-c3ccccc3)c(-c3ccccc3)s2)cc1

Continued, compound first:

Row | SMILES | melting point
31 | Cc1cc(C(=O)O)ccc1C1=CC(C)(C)CC(C)(C)C1 | 118 to 120 °C
32 | COc1ccc(Nc2ccccc2)c2c1c(CCN(C)C)cn2C | 158 to 160 °C
33 | Cc1nn(-c2c(Cl)cc(C(F)(F)F)cc2Cl)nc1C#N | 53 °C
34 | Cc1ccc(-c2coc3c(C)c(C)cc(C)c23)nc1 | 134 to 135 °C
35 | CC(CC(C(=O)N(C)C)(c1ccccc1)c1ccccc1)N1CCC(NC(=O)c2ccccc2O)C(O)C1 (stereo not drawn) | 154 °C
36 | COC(=O)CCCc1cc2nc(Cl)ccc2n1S(=O)(=O)c1ccc2c(c1)CCN2C(C)=O | 123 °C
37 | CCCCCCCCCCCCOC(=O)c1ccc(Cl)c(N)c1 | 58.3 to 59.5 °C
38 | CCC(CC)n1nnc2c(Nc3c(Br)cc(OC)cc3OC)nc(C)cc21 | 166 to 167 °C
39 | CCOC(=O)c1cn(CC2CC2)c2cc(-n3cccc3)c(F)cc2c1=O | 125 to 127 °C
40 | O=C(Cn1cnnn1)OCc1ccccc1 | 69 to 72 °C
41 | CCOC(=O)COc1cccc(N)c1 | 162 to 164 °C
42 | COc1ccc(OC)c2c1C(C)(C)CCC2(C)C | 195 °C
43 | COc1nc2cc(Cl)c(Cl)cc2nc1S(C)(=O)=O | 216 to 219 °C
44 | Cc1ccc2c(c1)C1(OCCO1)C1(CCC(=O)CC1)C2 | 116 to 118 °C
45 | C=Cc1ccccc1C1C(C(=O)OC)=C(C)NC(C)=C1C(=O)OC | 140 to 148 °C
46 | CCNC(=O)n1cc(F)c(NC(=O)NCc2ccccc2OC)nc1=O | 248 to 250 °C
47 | COc1cccc2c1C(NC(C)=O)=NS2(=O)=O | 242 to 245 °C
48 | CSc1nn2c(N3CCN(C)CC3)cc(CN3CCOCC3)nc2c1S(=O)(=O)c1ccccc1 | 199 to 201 °C
49 | CCOC(=O)c1cn(C2CC2)c2c(Cl)c(F)c(Cl)cc2c1=O | 215 to 217 °C
50 | C=CCc1cc2c(c(CC=C)c1O)N(CC=C(C)C)C(=O)CC2 | 94 to 96 °C
51 | COC=C(C(=O)OC)c1c(OCc2cc(Cl)ccc2Cl)c(C)nn1C | 94 to 96 °C
52 | Cn1c(C(F)(F)F)cc(=O)n(-c2cc(OCCBr)c(Cl)cc2F)c1=O | 125 to 127 °C

Row | SMILES | melting point
53 | Cc1sc(C=O)cc1Br | 58 °C
54 | CN1CCC(c2c[nH]c3ccc(OCc4ccccc4)cc23)CC1 | 163 to 164 °C
55 | CC(C)(C)C(=O)Cn1cncn1 | 62 to 64 °C
56 | O=C(N[C@H]1CC[C@@H](O)C1)OCc1ccccc1 (relative stereo) | 62 to 63 °C
57 | O=C(O)c1cc(Cl)c(Cl)nc1Cl | 164 to 168 °C
58 | CCCc1nn(C)c2c(=O)n(CCOc3cccc(OC(C)(CC)C(=O)O)c3)c(C)nc12 (stereo not drawn) | 130 to 132 °C
59 | COc1cc(OC)c2c(=O)[nH]c(-c3cc(C)c(OCCN4CCN(C)CC4)c(C)c3)cc2c1 | 195 to 198 °C
60 | COC(=O)C(C)Oc1ccc(NC(=O)OCCO)cc1 (stereo not drawn) | 90.5 to 92.8 °C
61 | Cc1cn(C2CC(N=[N+]=[N-])C(C(O)S(C)(=O)=O)O2)c(=O)n(C(=O)c2ccccc2)c1=O (stereo not drawn) | 86 to 88 °C
62 | CC(C)(C)C(=O)OCc1nc(-c2cc(C(C)(C)C)c(O)c(C(C)(C)C)c2)cs1 | 115 to 116 °C
63 | Cc1ccc(S(=O)(=O)N2C[C@@H]3C[C@H]2CN3C)cc1 | 87 to 88 °C
64 | CC1(CC(=O)O)CCCCCC1=O (stereo not drawn) | 43 to 45 °C
65 | [N-]=[N+]=N[C@]1(C(=O)O)[C@H]2[C@@H](C[C@H]1O)[C@@H]2C(=O)O | 124 to 128 °C
66 | COc1cc2c(c(OC)c1OC)CCC(C(=O)Cc1cccc(F)c1)C2C#N (stereo not drawn) | 120 to 122 °C
67 | CC(C)Nc1nc(N2CCOCC2)nc2cscc12 | 202 °C
68 | CC1(C)C=Cc2cc(C(=O)NCCO)ccc2O1 | 60 to 70 °C
69 | CC(=O)OC(CN1C(=O)N(C(C)=O)C2(CC(C)(C)N(C)C(C)(C)C2)C1=O)CN1C(=O)N(C(C)=O)C2(CC(C)(C)N(C)C(C)(C)C2)C1=O | 105 to 108 °C
70 | CC(C)(C)OC(=O)N1C[C@@H]2OCc3c(-c4cccc(F)c4)nnn3[C@H]2C1 | 249 to 250 °C
71 | CCOC(=O)c1cn(CC)c2cc(C3CCCCC3)c(OC)cc2c1=O | 154 to 156 °C
72 | COC(=O)CC(c1ccc(OC)c(OC)c1)N1C(=O)C2C=CCCC2C1=O (stereo not drawn) | 100 to 102 °C
73 | FCc1nnc2n1-c1ccc(Cl)cc1C(c1ccccc1)=NC2 | 153 to 154 °C
